Where a SMILES comes first, the peptide text is derived from it. Bridges are numbered along the chain shown (N, C = ends). [ ]: non-standard residue; d: D form. R8 = C=CCCCCCC[C@@](C)(N)C(=O)O; S5 = C=CCCC[C@](C)(N)C(=O)O

One data set deals with NLRP3 inflammasome. The data set can be described thus: IL-1β release from THP-1 cells stimulated with LPS and nigericin (ELISA). To be noted: 10, 50 and 100 μM peptide for 4 hours, then LPS 4 hours, nigericin 1 hour; Fig. 6. The data set is classed as cell-based, human. The protocol:
We next examined whether the ASC peptides could inhibit IL-1β production, which is regulated by the inflammasome. We used THP-1 human monocytic cells to study inflammasome activation as they express high levels of NLRP3, ASC, and pro-casp-1. THP-1 cells were incubated with ms_ASC^PYD #1–6 or ms_NLRP3^PYD peptides at increasing concentrations for 4 hours and were then stimulated with LPS for 4 hours, followed by the NLRP3 activator nigericin for 1 hour. IL-1β levels were measured in the culture supernatant. […] The ms_ASC^PYD peptides reduced IL-1β production from THP-1 cells in response to LPS/nigericin stimulation to variable degrees (Fig. 6A). […] We decided to continue investigating in detail the inhibitory effects of ms_ASC^PYD #5 and #6 peptides, as their estimated binding energies matched well with the experimental data of suppression of ASC-dependent IL-1 release in a dose-dependent manner. Since ms_ASCPYD #6 is the shorter version of ms_ASCPYD #5, this selection also enabled us to verify the effect of varying peptide lengths.
Human monocytic THP-1 cells (1 × 10^7 cells) were plated in a 10-cm tissue culture dish and treated with PMA (200 nM) overnight to differentiate monocytic cells into macrophages. Cells were then washed and allowed to rest in fresh media for another day. For stimulation, differentiated THP-1 cells were trypsinized and seeded in 96-well plates (2 × 10^6/well). Peripheral blood mononuclear cells were isolated by Ficoll-Hypaque density gradient centrifugation from buffy coats obtained from anonymous donors provided by the National University Hospital Blood Bank, Singapore. Isolation of monocytes was performed using negative selection with the Monocyte Isolation Kit II (Miltenyi Biotech), following the manufacturer’s instructions. Monocytes were plated in tissue culture non-treated 96-well plates (2.5 × 10^5/well) in 250 µl RPMI 1640-Glutamax media supplemented with 3% human AB serum (Gemini Bio Products).
THP-1 cells and monocytes were incubated with NLRP3^PYD (12.5–25–50 μM), ASC^PYD #5 (12.5-25-50-100 μM) or ASC^PYD #6 (12.5-25-50-100 μM) for the indicated durations. Cells were then washed once with PBS and primed with E. coli LPS (0.1 μg/ml, Invivogen) for 4 h followed by stimulation with nigericin (10 μM) for an additional 1 h or ATP ([…]) for an additional 30 min. The cell culture supernatants were then collected and centrifuged at 500 × g to remove cells and cellular debris.
IL-1β levels were measured using antibodies from eBioscience (cat. #14-7018-81 and #13-7016-85), following the manufacturer’s instructions. IL-18 levels were measured using antibodies from MBL (D044-3 and D045-6) following the manufacturer’s instructions. The absorbance was measured at 450 nm with the reference wavelength at 570 nm, using an M200 Infinite plate reader (Tecan).
On the technique in general: An ELISA detects its analyte on a solid surface through an enzyme-linked reagent.

Data set [1] can be described thus: Circular dichroism, percentage of helicity (K2D3). The data set is classed as physicochemical. To be noted: CD, room temperature, water, 100 μM peptide; estimated with K2D3. The source says:
The conformation of helix 2 (^16TAEELKKFKLKLLSV^30) bound to ASC^PYD (Fig. 1A) was used as the starting structure for the peptide-protein interaction modeling. Following I,I + 7 stapling scheme, we inserted a hydrocarbon staple across positions 5 and 12 along the peptide and then introduced mutations to produce a set of stapled peptides. Two variants of the template peptide were designed – a short version containing 13 residues (ms_ASC^PYD #6) and a long version containing 15 residues (ms_ASC^PYD #1–5) with two additional residues at the N-terminus (Table 1). These two additional residues were inserted to increase the length of the peptide, thus potentially enabling sufficient conformational flexibility for the region involving the critical Arg3 to remain helical. A similar approach was taken to introduce the staple in the ms_NLRP3^PYD peptide. As determined from Circular Dichroism (CD) spectra, inserting the I,I + 7 staple had the intended effect of increasing helicity of the peptides (Fig. 3). […] Percentage of helicity was much higher for ASC^PYD stapled peptides #5 and #6, 95% and 70% respectively at 100 μM peptide concentration. Percentage of helicity for the peptides were estimated from the web server K2D3[36] using CD data.
Figure 3 Circular dichroism (CD) spectra of (A) NLRP3^PYD and (B) ASC^PYD peptides to measure secondary structures.

In a further data set the target is ASC PYD (Homo sapiens) (UniProt Q9ULZ3). Kind of data set: NMR titration. As to conditions: cited from earlier work.

For the compound `CC(=O)N[C@H](C(=O)N[C@@H](CC(=O)O)C(=O)N[C@]1(C)CCCCCCC=CCCC[C@@](C)(C(=O)N[C@@H](CCC(=O)O)C(=O)N[C@@H](CC(=O)O)C(=O)N[C@@H](Cc2ccc(O)cc2)C(N)=O)NC(=O)[C@H](Cc2c[nH]cn2)NC(=O)[C@H](Cc2ccccc2)NC(=O)[C@H](CCCCN)NC(=O)[C@H](C)NC(=O)[C@H](CCCCN)NC(=O)[C@H](CCCCN)NC1=O)C(C)C` [ms_NLRP3^PYD] (Ac-VD[R8]KKAKFH[S5]EDY-NH2; staple 3-10), in the data set with NLRP3 inflammasome, the “IL-1β release (in words)” value is listed as “produced less IL-1β in a dose-dependent manner”. Besides, in data set [1], the Percentage of helicity is 48%. As for ASC PYD (from UniProt Q9ULZ3), the Kd with ASC PYD (Homo sapiens) was 65 µM. Turning to Ac-VDLKKFKMHLEDY-NH2 [wt_NLRP3^PYD], the Percentage of helicity entry in data set [1] is reported as “no helicity”.

Consider `CC(=O)N[C@H](C(=O)N[C@@H](C)C(=O)N[C@@H](CCCNC(=N)N)C(=O)N[C@@H](CCC(=O)O)C(=O)N[C@]1(C)CCCCCCC=CCCC[C@@](C)(C(=O)N[C@@H](CCC(=O)O)C(=O)N[C@@H](CO)C(=O)N[C@H](C(N)=O)C(C)C)NC(=O)[C@H](CCCCN)NC(=O)[C@H](Cc2ccccc2)NC(=O)[C@H](CCCCN)NC(=O)[C@H](C)NC(=O)[C@H](CCCCN)NC(=O)[C@H](CCCCN)NC1=O)[C@@H](C)O` [ms_ASC^PYD #2] (Ac-TARE[R8]KKAKFK[S5]ESV-NH2; staple 5-12), for which the “IL-1β release (in words)” value with NLRP3 inflammasome was “inability to suppress IL-1β release”.

By Kd is commonly meant the free concentration of one partner at which half of the binding sites on the other are occupied at equilibrium, for simple one-to-one binding.

The record behind these values is paper PMC6426897, “Inhibition of NLRP3 inflammasome activation by cell-permeable stapled peptides” (Scientific Reports, 2019).
